Molecules are shown by their SMILES.

Among the data in ChEMBL document CHEMBL1157539, “Thousands of chemical starting points for antimalarial lead identification” (Nature, 2010) are XC50 values, retold here.

In this assay the test system is Plasmodium falciparum. The experiment in a line: GSK_TCMDC: Inhibition of Plasmodium falciparum 3D7 in whole erythrocytes, using parasite LDH activity as an index of growth. Conditions: Plasmodium falciparum, 3D7. Type of assay: functional, organism-based.
As for `COc1ccc2c(N/N=C/c3cccc([N+](=O)[O-])c3)cc(C)nc2c1`, the XC50 came out at 557 nM.

Consider `O=C(Nc1ccc(N2CCN(C(=O)/C=C/c3ccccc3)CC2)c(Cl)c1)c1ccc([N+](=O)[O-])o1`, for which the XC50 was found to be 859 nM. To `O=C(Nc1nc(-c2ccccn2)cc2ccccc12)c1cccc(Cl)c1` belongs 754 nM; to `Clc1ccc2c(Cl)c(CNCCCNc3nc4ccccc4[nH]3)[nH]c2c1`, 219 nM. To `CCCCN(C(=O)c1ccccc1C)c1nnc(-c2ccccc2C)s1` belongs 927 nM; to `O=C(NC1CC1)c1cnc(N2CCN(Cc3ccc(Cl)cc3)CC2)c(Cl)c1`, 847 nM; to `CN(C)CCOc1cc(NC(=O)Nc2cccc3c(-c4ccncc4)cccc23)ccc1I`, 734 nM. For the compound `CCc1ccc(C2=Nn3c(nnc3-c3cccs3)SC2)cc1`, the XC50 came out at 1290 nM.

`CN(C)CCN(C)Cc1ccc(-c2ccc3c(Nc4ccc(Oc5ccccn5)cc4)ccnc3c2)o1` came in with an XC50 of 424 nM. With `FC(F)(F)c1ccc2c(NCCCNc3ccnc4cc(C(F)(F)F)ccc34)ccnc2c1`, the XC50 was 31.5 nM. As for `OC(c1cc(C(F)(F)F)nc2c(F)cccc12)C1CCCCN1` (stereo unspecified), the figure is 782 nM; as for `O=C(NCCc1ccccc1)N(Cc1cccc(-c2ccc(CNC3CCCC3)cc2)c1)C1CCN(Cc2ccccc2)CC1`, 404 nM; as for `CCNc1cc(CC)nc(Nc2ccc(C)cc2)n1`, 848 nM. Compound `CCNc1cc(C(=O)N[C@@H](Cc2ccccc2)[C@H](O)CNC(C)(C)Cc2cccc(Cl)c2)cc(N2CCCCS2(=O)=O)c1` registered an XC50 of 887 nM. In the case of `COc1ccc(OCCCON)cc1`, the XC50 worked out at 167 nM. To `C[C@@H](N/C(=N\c1ccccc1Cl)Nc1ccc(C#N)cc1O)c1ccc(Br)cc1` belongs 753 nM. In turn, `O=C(Nc1ccc2c(c1)CCN2C1CCN(Cc2cc(F)cc(F)c2F)C1)c1ccco1` (stereo unspecified) gave an XC50 of 590 nM. To `COCCNCc1ccc(-c2ccc(CNC3CCN(Cc4ccccc4)CC3)cc2)cc1` belongs 669 nM; to `Cc1cccc2nc(-c3ccc(-c4ccc(CN5CCC(N)C5)cc4)s3)[nH]c12` (stereo unspecified), 373 nM; to `CCn1c(SC)nnc1C1CCCN(CC(=O)Nc2nc3ccc(OC)cc3s2)C1` (stereo unspecified), 746 nM. With `CN(c1cc(NC(=O)c2cccs2)ccn1)C1CCN(Cc2cccc(F)c2)CC1`, the XC50 came out at 676 nM. `O=C(/C=C/c1ccc(Cl)c(Cl)c1)NCC1CCCC(CN2CCC(c3c[nH]c4ccccc34)CC2)C1` (stereo unspecified) displayed an XC50 of 726 nM. As for `COc1ccc(NC(=O)[C@H](CC(C)C)Nc2ccnc(NCCc3ccc(F)cc3)n2)cc1`, the figure is 1600 nM; as for `Cc1ccc(NC(=O)c2nc(N3CCN(c4ccncc4)CC3)ccc2Cl)cc1F`, 812 nM; as for `COc1cc2nc(NCCc3ccccc3)nc(NCc3nccs3)c2cc1OC`, 532 nM. As for `Cc1cccc2nc(-c3cccc(-c4ccc(NC(=O)C5CCCO5)cc4)c3)[nH]c12` (stereo unspecified), the figure is 901 nM.

Regarding `CCc1cc(N2CCN(c3ccccc3F)CC2)nc(SCc2ccc(C(=O)NC3CC3)o2)n1`, the XC50 was 892 nM.

For `CC(C)[C@H](NC(=O)c1ccc(O)c(-c2ccc(Cl)c(Cl)c2)c1)C(=O)NC1CCCCCC1`, the XC50 came to 224 nM. As for `COc1ccc2nccc([C@H](O)CN3CCC(NCc4cc(C)c5c(c4)OCCO5)CC3)c2n1`, the figure is 902 nM. For `COc1ccc2[nH]ccc(=NN=CC=Cc3ccccc3)c2c1`, the XC50 worked out at 743 nM. As for `NC(=O)c1ccsc1NC(=O)CNC(c1ccc(F)cc1)c1cccs1` (stereo unspecified), the figure is 947 nM; as for `COc1cc(N(Cc2ccccc2C)S(=O)(=O)Cc2ccccc2[N+](=O)[O-])c(OC)cc1Cl`, 1010 nM. To `O=C(Cc1ccccc1)NC(c1ccc(Cl)cc1)c1ccc2cccnc2c1O` (stereo unspecified) belongs 861 nM; to `Cc1[nH]c(C)c(-c2ccc(OCCOc3ccc(C(F)(F)F)cn3)cc2)c(=O)c1Br`, 138 nM; to `O=C(NCCN1CCCCC1)c1cc2cc(-c3ccccc3)ccc2n1S(=O)(=O)c1ccccc1`, 1120 nM. On to `Cc1cc(N(C)C)nc(Nc2ccc(NC(=O)c3ccccc3F)cc2)n1`, for which the XC50 was 1160 nM. `CC(C)c1ccc(CN2CCC(CNC(=O)c3cc(-c4ccc(N(C)C)cc4)cs3)C2)cc1` (stereo unspecified) showed an XC50 of 1250 nM. `CC(C)C[C@H](Nc1ccc(C#N)c2ccccc12)C(=O)NC(C)(C)C12CC3CC(CC(C3)C1)C2` returned an XC50 of 916 nM. To `Cc1nc(-c2cccc(Nc3nccc(NCC(O)c4ccccc4C(F)(F)F)n3)c2)cs1` (stereo unspecified) belongs 834 nM; to `O=C(O)c1cc(OCC(O)COc2ccc(O)c(C(=O)O)c2)ccc1O`, 227 nM. As for `c1ccc2c(NCCc3c[nH]cn3)c3ccccc3nc2c1`, the figure is 1040 nM; as for `CC(=O)Nc1ncc(C(=O)Nc2cccc(-c3cccc(-c4nc5cccc(C)c5[nH]4)c3)c2)s1`, 354 nM. In turn, `CNCCNCc1ccc(-c2cccc(-c3nc4cc(C(F)(F)F)ccc4[nH]3)c2)cc1` yielded an XC50 of 628 nM. Compound `c1ccc(N2CCN(c3cc(-c4cccnc4)nc(-c4ccncc4)n3)CC2)nc1` returned an XC50 of 757 nM.

In turn, `CC(C)(C)OC(=O)N(Cc1cc(-n2nnnc2C(F)(F)F)ccc1O)[C@H]1CCCN(C(=O)OC(C)(C)C)[C@H]1c1ccccc1` had an XC50 of 719 nM.

On to `COc1ccc(-c2ccc(NC(=O)c3cccc(C#N)c3)cc2)cc1CN(C)C`, for which the XC50 was 735 nM. As for `COc1ccc(C2CC(c3cccs3)=NN2C(=O)CNc2ccccc2F)cc1OC` (stereo unspecified), the figure is 631 nM; as for `C[C@@H](CC1CCCCC1)OC(=O)N(C)[C@H]1CCN(C#N)C1`, 219 nM; as for `CC(C)CN1CCCN(Cc2cccc(NC(=O)c3ccc(Cl)c(Cl)c3)c2)CC1`, 893 nM. In turn, `CCCCNC[C@@H](O)[C@H](Cc1ccccc1)NC(=O)c1cc(NCC)cc(N2CCCCS2(=O)=O)c1` yielded an XC50 of 398 nM. As for `COc1cccc(CNC(=O)c2cccc(-c3cccc(CN4CCC(N5CCCC5)CC4)c3)n2)c1`, the figure is 1030 nM. `Cc1ccc(Nc2nc(C)cc(Nc3cccc(NS(C)(=O)=O)c3)n2)cc1` had an XC50 of 917 nM. For the compound `O=C(O)c1ccc(OCOCOc2ccc(C(=O)O)c(O)c2)cc1O`, the XC50 was 190 nM. As for `Cc1nc2ccc(Nc3nccc(-c4c(-c5cccc(NC(=O)c6c(F)cccc6F)c5)nn5ccccc45)n3)cc2nc1C`, the figure is 1070 nM. As to `COc1c(C2CCN(CCCCNC(=O)c3ccc(-c4ccc(Cl)cc4)cn3)CC2)ccc2c1CCCC2`, the XC50 worked out at 912 nM. The compound `COc1ccccc1-c1cccc2c(NC(=O)Nc3ccc4nccc(N5CCN(C)CC5)c4c3)ccnc12` gave an XC50 of 1000 nM.

For `Cc1cccc2nc(-c3ccc(-c4ccc(CN5CCCC(O)C5)cc4)s3)[nH]c12` (stereo unspecified), the XC50 is 830 nM. As for `Cc1ccc(C)c(S(=O)(=O)Nc2ccc(Br)cc2C(=O)Nc2cccc(C(F)(F)F)c2)c1`, the figure is 1210 nM; as for `O=C(Nc1cccc(Cl)c1)N[C@H]1CCN(Cc2ccc(OCCCN3CCCCC3)cc2)C1`, 729 nM. As for `N=C1NC(=O)C(=Cc2cn(-c3ccccc3)nc2-c2cccc(S(=O)(=O)N3CCCC3)c2)S1`, the figure is 1140 nM. As for `O=C(COc1ccccc1)NC1CCN(c2ccnc3cc(Cl)ccc23)C1` (stereo unspecified), the figure is 698 nM. Regarding `O=C(Nc1cc(C(F)(F)F)cc(C(F)(F)F)c1)NC(CCCN1CCC2(CC1)OCc1ccccc12)c1ccc(Cl)c(Cl)c1` (stereo unspecified), the XC50 was determined as 820 nM. Compound `CCCc1cc(Cc2cnc(N)nc2N)cc(CCC)c1OCCCCC(=O)O` gave an XC50 of 195 nM.

For the compound `Fc1ccc2[nH]c(-c3ccc(-c4ccc(CN5CCCCC5)cc4)cc3)nc2c1`, the XC50 was determined as 349 nM.

`N=C(N)Nc1nc(-c2cccc(NC(=O)NCCc3c[nH]c4ccc(OCc5ccccc5)cc34)c2)cs1` returned an XC50 of 805 nM. In turn, `O=C(/C=C/c1ccc(Cl)c(Cl)c1)N1CCC(CN2CCC(c3c[nH]c4cc5c(cc34)OCO5)CC2)CC1` returned an XC50 of 680 nM. To `O=C(NC1CCN(CCN2CCC(c3cn(CCO)c4ccccc34)CC2)CC1)c1ccc(-c2ccc(C(F)(F)F)cc2)cc1` belongs 740 nM; to `CCCn1c(O)nnc1SCC(=O)Nc1cc(Cl)ccc1Cl`, 997 nM; to `O=C(Nc1ccc(C(=O)Oc2ccc3ccccc3c2)cc1)N[C@@H](Cc1ccc(O)cc1)C(=O)NC1CCN(Cc2ccc(O)cc2)C1` (stereo partly specified), 1060 nM. To `CCCC(=O)Nc1ccc(OCCCCN(CC(C)(C)C)c2ccc(C#N)c(C(F)(F)F)c2)cc1` belongs 1350 nM; to `O=C(NC1CCC(CN2CCC(c3c[nH]c4ccccc34)CC2)CC1)c1cc(-c2ccc(F)cc2F)ccc1O` (stereo unspecified), 356 nM.

For `COc1cc(Cc2cnc(N)nc2N)c2c(c1OC)OC(C)C=C2` (stereo unspecified), the XC50 is 1250 nM. As for `Cc1cnc(NCCc2ccc(F)cc2)nc1N[C@@H](CC(C)C)C(=O)Nc1ccccc1`, the figure is 970 nM; as for `CCn1cc2c3c(cc(C(=O)N[C@@H](Cc4ccccc4)[C@H](O)CNCc4cccc(OC)c4)cc31)N(C)S(=O)(=O)CC2`, 667 nM.

Turning to `CN(C)Cc1c(O)ccc2[nH]c(-c3ccc(F)cc3F)nc12`, the XC50 was determined as 1300 nM. In turn, `CCOc1cc(C(=O)Nc2cccnc2)cc(Br)c1OCCC(C)C` registered an XC50 of 1080 nM.

For `Cc1cc(N[C@@H](Cc2ccccc2)C(=O)NC2CCCC2)nc(NCCc2cccs2)n1`, the XC50 came to 1400 nM.

`Cc1nccn1Cc1cc(C(C)(C)C)c(O)c(C(C)(C)C)c1` returned an XC50 of 788 nM.

In the case of `NC1=NC(Cc2ccccc2)(c2ccncc2)C(=O)N1CCCc1ccccc1` (stereo unspecified), the XC50 turned out to be 936 nM.

On to `COc1ccc2nccc([C@@H](O)CN3CCC(NCc4ccc5nnsc5c4)CC3)c2c1`, for which the XC50 is 714 nM. To `Cc1ncccc1C(=O)Nc1cccc(-c2cccc(-c3nc4cc(C(F)(F)F)ccc4[nH]3)c2)c1` belongs 602 nM; to `CCCN(Cc1nnc(-c2cccs2)o1)C(=O)C1COc2ccccc2O1` (stereo unspecified), 850 nM. To `N#Cc1ccc(-c2ccc(C(=O)NCCCCN3CCC(c4cn(CCCO)c5ccccc45)CC3)cc2)cc1` belongs 750 nM; to `COc1ccc2nccc([C@@H](O)CN3CCC(NCc4cc5c(F)ccc(F)c5[nH]4)CC3)c2c1`, 144 nM. `Cc1nc(-c2cccc(C(=O)NC3CCC(CCN4CCc5ccc(-c6cccnc6)cc5CC4)CC3)c2)no1` (stereo unspecified) yielded an XC50 of 762 nM.

As to `CC1CCN(c2nc(C(=O)Nc3ccc(F)cc3C(F)(F)F)c(C(C)C)s2)CC1`, the XC50 was 229 nM.
